Experimental data taken from patent publication US9617271B2, “Triazolo compounds” (Hoffmann-La Roche Inc., priority 2012, dated 2017).

Target: human PDE10A (Homo sapiens (Human), UniProt Q9Y233)
Test: human PDE10A full length assay ([3H]-cGMP SPA)
Assay type: biochemical
Settings: human PDE10A full length enzyme, 50 nM cGMP + 50 nM [3H]-cGMP, 20 minutes at room temperature; read-out: PDE10A inhibition IC50
Description: The human PDE10A full length assay was performed in 96-well micro titer plates. The reaction mixture of 50 μl contained 20 mM HEPES pH=7.5/10 mM MgCl2/0.05 mg/ml BSA (Sigma cat. #A-7906), 50 nM cGMP (Sigma, cat. #G6129) and 50 nM [3H]-cGMP (GE Healthcare, cat. #TRK392 S.A. 13.2 Ci/mmol), 3.75 ng/well PDE10A enzyme (Enzo Life Science, Lausen, Switzerland cat #SE-534) with or without a specific test compound. A range of concentrations of the potential inhibitor was used to generate data for calculating the concentration of inhibitor resulting in 50% of the effect (e.g. IC50, the concentration of the competitor inhibiting PDE10A activity by 50%). Non-specific activity was tested without the enzyme. The reaction was initiated by the addition of the substrate solution (cGMP and [3H]-cGMP) and allowed to progress for 20 minutes at room temperature. The reaction was terminated by adding 25 μl of YSi-SPA scintillation beads (GE Healthcare, cat. #RPNQ0150) in 18 mM zinc sulphate solution (stop reagent). After 1 h under shaking, the plate was centrifuged one minute at 170 g to allow beads to settle. Afterwards, radioactive counts were measured on a Perkin Elmer TopCount Scintillation plate reader.

Chain of human PDE10A (Q9Y233 other isoform, or with tags, fused parts or gaps): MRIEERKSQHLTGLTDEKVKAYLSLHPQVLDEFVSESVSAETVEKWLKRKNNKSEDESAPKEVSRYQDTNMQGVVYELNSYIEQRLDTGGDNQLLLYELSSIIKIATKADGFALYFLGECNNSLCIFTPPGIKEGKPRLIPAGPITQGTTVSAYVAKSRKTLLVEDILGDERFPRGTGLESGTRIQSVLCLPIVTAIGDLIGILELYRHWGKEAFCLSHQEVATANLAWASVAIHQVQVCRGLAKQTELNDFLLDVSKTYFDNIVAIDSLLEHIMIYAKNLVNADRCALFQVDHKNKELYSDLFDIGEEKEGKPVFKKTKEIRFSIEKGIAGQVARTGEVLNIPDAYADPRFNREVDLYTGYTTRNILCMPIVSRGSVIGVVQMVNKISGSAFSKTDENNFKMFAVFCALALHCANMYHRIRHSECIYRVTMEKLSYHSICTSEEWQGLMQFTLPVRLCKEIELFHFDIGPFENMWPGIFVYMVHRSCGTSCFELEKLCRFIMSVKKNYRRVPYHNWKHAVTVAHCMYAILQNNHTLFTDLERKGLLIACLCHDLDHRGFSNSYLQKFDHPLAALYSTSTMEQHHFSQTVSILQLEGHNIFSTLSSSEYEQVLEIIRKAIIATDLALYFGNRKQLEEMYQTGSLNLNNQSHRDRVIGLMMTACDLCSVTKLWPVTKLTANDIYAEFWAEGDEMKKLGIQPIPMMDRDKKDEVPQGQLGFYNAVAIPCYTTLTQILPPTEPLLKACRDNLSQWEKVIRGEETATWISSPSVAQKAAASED

Compound	IC50
CNC(=O)c1cc2nc(C)c(C)n2nc1C#Cc1nc(N2CCCC2)nn1C [Example 39, N,2,3-Trimethyl-6-((1-methyl-3-(pyrrolidin-1-yl)-1H-1,2,4-triazol-5-yl)ethynyl)imidazo[1,2-b]pyridazine-7-carboxamide]	1400 nM
Cc1nc2c(S(C)(=O)=O)cc(C#Cc3nc(N4CCCC4)nn3C)nn2c1C [Example 29, 2,3-Dimethyl-6-((1-methyl-3-(pyrrolidin-1-yl)-1H-1,2,4-triazol-5-yl)ethynyl)-8-(methylsulfonyl)imidazo[1,2-b]pyridazine]	5 nM
Cc1nc2c(N(C)C)nc(CCc3nc(N4CCCC4)nn3C)nn2c1C [Example 22, N,N,6,7-Tetramethyl-2-(2-(1-methyl-3-(pyrrolidin-1-yl)-1H-1,2,4-triazol-5-yl)ethyl)-imidazo[1,2-f][1,2,4]triazin-4-amine]	2 nM
Cc1nc2ccc(CCc3nc(N4CCCC4)nn3C)nn2c1C [Example 2, 2,3-Dimethyl-6-(2-(1-methyl-3-(pyrrolidin-1-yl)-1H-1,2,4-triazol-5-yl)ethyl)-imidazo[1,2-b]pyridazine]	11 nM
Cn1nc(N2CCCC2)nc1CCc1ccc2nc(Cl)cn2n1 [Example 37, 2-Chloro-6-(2-(1-methyl-3-(pyrrolidin-1-yl)-1H-1,2,4-triazol-5-yl)ethyl)imidazo[1,2-b]pyridazine]	338 nM
Cc1nc2c(C)cc(CCc3nc(N4CCCC4)nn3C)nn2c1C [Example 16, 2,3,8-trimethyl-6-(2-(1-methyl-3-(pyrrolidin-1-yl)-1H-1,2,4-triazol-5-yl)ethyl)-imidazo[1,2-b]pyridazine]	2 nM
Cc1c(C(F)F)nc2ccc(C#Cc3nc(N4CCCC4)nn3C)nn12 [Example 7, 2-(Difluoromethyl)-3-methyl-6-((1-methyl-3-(pyrrolidin-1-yl)-1H-1,2,4-triazol-5-yl)ethynyl)imidazo[1,2-b]pyridazine]	5 nM
Cc1c(C#N)nc2ccc(/C=C/c3nc(N4CCCC4)nn3C)nn12 [Example 3, 3-Methyl-6-[(E)-2-(2-methyl-5-pyrrolidin-1-yl-2H-[1,2,4]triazol-3-yl)vinyl]-imidazo[1,2-b]pyridazine-2-carbonitrile]	5 nM
N-Ethyl-6,7-dimethyl-2-(2-(1-methyl-3-(pyrrolidin-1-yl)-1H-1,2,4-triazol-5-yl)ethyl)-imidazo[1,2-f][1,2,4]triazin-4-amine [Example 32]	6 nM
Cc1nc2c(NC(C)C)nc(CCc3nc(N4CCCC4)nn3C)nn2c1C [Example 31, N-Isopropyl-6,7-dimethyl-2-(2-(1-methyl-3-(pyrrolidin-1-yl)-1H-1,2,4-triazol-5-yl)ethyl)imidazo[1,2-f][1,2,4]triazin-4-amine]	3 nM
Cc1nc2c(O)nc(CCc3nc(N4CCCC4)nn3C)nn2c1C [Example 11, 6,7-Dimethyl-2-(2-(1-methyl-3-(pyrrolidin-1-yl)-1H-1,2,4-triazol-5-yl)ethyl)imidazo[1,2-f][1,2,4]triazin-4-ol]	225 nM
Cc1nc2c(OC(C)C)cc(CCc3nc(N4CCCC4)nn3C)nn2c1C [Example 27, 8-Isopropoxy-2,3-dimethyl-6-(2-(1-methyl-3-(pyrrolidin-1-yl)-1H-1,2,4-triazol-5-yl)ethyl)imidazo[1,2-b]pyridazine]	3 nM
CNC(=O)c1cc(C#Cc2nc(N3CCCC3)nn2C)nn2c(C)c(C)nc12 [Example 40, N,2,3-Trimethyl-6-((1-methyl-3-(pyrrolidin-1-yl)-1H-1,2,4-triazol-5-yl)ethynyl)imidazo-[1,2-b]pyridazine-8-carboxamide]	1 nM
COc1cc(/C=C/c2nc(N3CCCC3)nn2C)nn2c(C)c(C(F)(F)F)nc12 [Example 9, (E)-8-methoxy-3-methyl-6-(2-(1-methyl-3-(pyrrolidin-1-yl)-1H-1,2,4-triazol-5-yl)vinyl)-2-(trifluoromethyl)imidazo[1,2-b]pyridazine]	1 nM

Other lines, results leading:

IC50	Compound
2.7 nM	COc1cc2nc(C)c(C)n2nc1C#Cc1nc(N2CCCC2)nn1C [Example 60, 7-Methoxy-2,3-dimethyl-6-((1-methyl-3-(pyrrolidin-1-yl)-1H-1,2,4-triazol-5-yl)ethynyl)imidazo[1,2-b]pyridazine]
19.8 nM	Cc1nc2cc(C3CCCCC3)c(CCc3nc(N4CCCC4)nn3C)nn2c1C [Example 58, 7-Cyclohexyl-2,3-dimethyl-6-(2-(1-methyl-3-(pyrrolidin-1-yl)-1H-1,2,4-triazol-5-yl)ethyl)imidazo[1,2-b]pyridazine]
2 nM	CNC(=O)c1cc(CCc2nc(N3CCCC3)nn2C)nn2c(C)c(C)nc12 [Example 41, N,2,3-Trimethyl-6-(2-(1-methyl-3-(pyrrolidin-1-yl)-1H-1,2,4-triazol-5-yl)ethyl)imidazo-[1,2-b]pyridazine-8-carboxamide]
2.1 nM	CNC(=O)c1cc(C#Cc2nc(N3CCCC3)nn2C)nn2c(C)c(C(F)(F)F)nc12 [Example 69, N,3-Dimethyl-6-((1-methyl-3-(pyrrolidin-1-yl)-1H-1,2,4-triazol-5-yl)ethynyl)-2-(trifluoromethyl)imidazo[1,2-b]pyridazine-8-carboxamide]
8.7 nM	Cc1c(C(F)(F)F)nn2ccc(C#Cc3nc(N4CCCC4)nn3C)nc12 [Example 71, 3-Methyl-5-[2-(2-methyl-5-pyrrolidin-1-yl-1,2,4-triazol-3-yl)ethynyl]-2-(trifluoromethyl)pyrazolo[1,5-a]pyrimidine]
3 nM	Cc1c(C(F)(F)F)nc2c(OCC(F)(F)F)cc(C#Cc3nc(N4CCCC4)nn3C)nn12 [Example 62, 3-Methyl-6-((1-methyl-3-(pyrrolidin-1-yl)-1H-1,2,4-triazol-5-yl)ethynyl)-8-(2,2,2-trifluoroethoxy)-2-(trifluoromethyl)imidazo[1,2-b]pyridazine]
76 nM	Cc1cn2nc(C)c(C)c2nc1CCc1nc(N2CCCC2)nn1C [Example 61, 2,3,6-Trimethyl-5-(2-(1-methyl-3-(pyrrolidin-1-yl)-1H-1,2,4-triazol-5-yl)ethyl)pyrazolo[1,5-a]pyrimidine]
10.2 nM	Cc1cn2nc(C#Cc3nc(N4CCCC4)nn3C)ccc2n1 [Example 67, 2-Methyl-6-((1-methyl-3-(pyrrolidin-1-yl)-1H-1,2,4-triazol-5-yl)ethynyl)imidazo[1,2-b]pyridazine]
1.6 nM	Cc1cc(C#Cc2nc(N3CCCC3)nn2C)nn2c(C)c(C(F)(F)F)nc12 [Example 54, 3,8-Dimethyl-6-((1-methyl-3-(pyrrolidin-1-yl)-1H-1,2,4-triazol-5-yl)ethynyl)-2-(trifluoro-methyl)imidazo[1,2-b]pyridazine]
13.7 nM	CNC(=O)c1cc(CCc2nc(N3CCCC3)nn2C)nn2c(C)c(C(F)(F)F)nc12 [Example 70, N,3-dimethyl-6-(2-(1-methyl-3-(pyrrolidin-1-yl)-1H-1,2,4-triazol-5-yl)ethyl)-2-(trifluoromethyl)imidazo[1,2-b]pyridazine-8-carboxamide]
2.5 nM	Cc1nc2ccc(C#Cc3nc(N4CCCC4)nn3C)nn2c1Cl [Example 65, 3-Chloro-2-methyl-6-((1-methyl-3-(pyrrolidin-1-yl)-1H-1,2,4-triazol-5-yl)ethynyl)imidazo[1,2-b]pyridazine]
2.6 nM	Cc1nn2ccc(C#Cc3nc(N4CCCC4)nn3C)nc2c1C [Example 52, 2,3-Dimethyl-5-((1-methyl-3-(pyrrolidin-1-yl)-1H-1,2,4-triazol-5-yl)ethynyl)pyrazolo[1,5-a]pyrimidine]
